Results: ChEMBL document CHEMBL2062501 (ACS Med Chem Lett, 2012)

Assays:
[1] = target: T1, Calcitonin gene-related peptide type 1 receptor (Homo sapiens, UniProt O60894+Q16602); test: Displacement of [125I]-CGRP from CGRP receptor in human SK-N-MC cells; assay type: cell-based
[2] = tested on: marmosets; test: Antimigraine activity in marmosets assessed as inhibition of alphaCGRP-induced increase in facial blood flow at 10 mg/kg, po by laser Doppler flowmetry; assay type: functional; details: Callitrichinae sp., in Callithrix jacchus
[3] = Oral bioavailability in cynomolgus monkey at 10 mg/kg; assay type: ADME, organism-based, Macaca fascicularis; details: in vivo
[4] = tested on: marmosets; test: Antimigraine activity in marmosets assessed as inhibition of human alphaCGRP-induced increase in facial blood flow at 7 mg/kg, sc measured after 60 mins by laser Doppler flowmetry; assay type: functional; details: Callitrichinae sp., 1 h, route subcutaneous
[5] = Half life in human liver microsomes at 0.5 uM; assay type: ADME, Microsome
[6] = target: T1, Calcitonin gene-related peptide type 1 receptor; test: Antagonist activity at CGRP receptor in human SK-N-MC cells assessed as inhibition of CGRP-stimulated cAMP production; assay type: functional, cell-based
[7] = Plasma concentration on marmosets at 7 mg/kg, sc measured after 60 mins; assay type: ADME, organism-based; parameters: dose 7 mg/kg, route subcutaneous; details: callitrichinae sp.
[8] = Oral bioavailability in dog at 10 mg/kg; assay type: ADME, organism-based, Canis lupus familiaris; details: in vivo
[9] = Permeability of the compound at pH 7.4 by PAMPA; assay type: ADME; details: read-out: permeability
[10] = Oral bioavailability in rat at 10 mg/kg; assay type: ADME, organism-based; details: in vivo
[11] = Plasma concentration on marmosets at 7 mg/kg, sc measured after 105 mins; assay type: ADME, organism-based; parameters: dose 7 mg/kg, route subcutaneous; details: callitrichinae sp.
[12] = tested on: marmosets; test: Antimigraine activity in marmosets assessed as inhibition of human alphaCGRP-induced increase in facial blood flow at 7 mg/kg, sc measured after 105 mins by laser Doppler flowmetry; assay type: functional; details: Callitrichinae sp., 1.75 h, route subcutaneous
[13] = Permeability of the compound at pH 5.5 by PAMPA; assay type: ADME; details: read-out: permeability
[14] = Metabolic stability of the compound in human liver microsomes assessed as compound remaining at 0.5 uM after 10 mins; assay type: ADME, Microsome; details: read-out: Stability

T1 sequence (Q16602 whole entry, one chain of several): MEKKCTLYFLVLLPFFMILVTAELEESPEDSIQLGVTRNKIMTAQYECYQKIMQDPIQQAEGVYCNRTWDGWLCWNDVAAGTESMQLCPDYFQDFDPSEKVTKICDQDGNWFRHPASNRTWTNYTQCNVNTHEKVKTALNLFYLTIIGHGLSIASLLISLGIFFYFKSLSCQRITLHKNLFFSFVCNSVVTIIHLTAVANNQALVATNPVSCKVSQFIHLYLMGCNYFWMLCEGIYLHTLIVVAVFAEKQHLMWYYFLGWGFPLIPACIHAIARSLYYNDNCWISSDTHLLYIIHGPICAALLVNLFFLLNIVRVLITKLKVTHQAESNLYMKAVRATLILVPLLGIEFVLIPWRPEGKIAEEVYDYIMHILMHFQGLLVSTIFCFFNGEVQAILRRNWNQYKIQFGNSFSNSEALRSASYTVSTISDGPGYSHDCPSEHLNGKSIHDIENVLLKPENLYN

Structure (SMILES) | Ki [1] [nM] | inhibition in vivo at 10 mg/kg [2] [%] | bioavailability [3] [%] | inhibition in vivo at 7 mg/kg [4] [%] | half-life at 0.5 µM [5] [min] | IC50 [6] [nM] | concentration at 1 h [7] [nM] | bioavailability [8] [%] | Papp [9] [×10⁻⁶ cm/s] | bioavailability [10] [%] | concentration at 1.75 h [11] [nM] | inhibition in vivo at 7 mg/kg [12] [%] | Papp [13] [×10⁻⁶ cm/s] | remaining at 10 min, 0.5 µM [14] [%]
O=C(O[C@H]1CC[C@H](c2cccc(F)c2F)Cc2cccnc21)N1CCC(n2c(=O)[nH]c3ncccc32)CC1 | 940 | – | – | – | – | – | – | – | – | – | – | – | – | –
Cc1cc(CC(OC(=O)N2CCC(n3c(=O)[nH]c4ncccc43)CC2)c2cc(C(=O)N(C)C)cc(Cl)n2)cc2cn[nH]c12 (racemic) | 0.071 | 31 | – | – | – | – | – | – | – | – | – | – | – | –
O=C(O[C@@H]1CC[C@@H](c2cccc(F)c2F)Cc2cccnc21)N1CCC(n2c(=O)[nH]c3ncccc32)CC1 | 0.07 | – | 38 | 52 | 24 | 0.22 | > 1000 | 34 | 88 | 29 | > 1500 | 52 | 150 | 74
